Test [1] deals with T1, Ubiquitin carboxyl-terminal hydrolase 8 (Homo sapiens) (UniProt P40818).
T1 sequence (whole entry): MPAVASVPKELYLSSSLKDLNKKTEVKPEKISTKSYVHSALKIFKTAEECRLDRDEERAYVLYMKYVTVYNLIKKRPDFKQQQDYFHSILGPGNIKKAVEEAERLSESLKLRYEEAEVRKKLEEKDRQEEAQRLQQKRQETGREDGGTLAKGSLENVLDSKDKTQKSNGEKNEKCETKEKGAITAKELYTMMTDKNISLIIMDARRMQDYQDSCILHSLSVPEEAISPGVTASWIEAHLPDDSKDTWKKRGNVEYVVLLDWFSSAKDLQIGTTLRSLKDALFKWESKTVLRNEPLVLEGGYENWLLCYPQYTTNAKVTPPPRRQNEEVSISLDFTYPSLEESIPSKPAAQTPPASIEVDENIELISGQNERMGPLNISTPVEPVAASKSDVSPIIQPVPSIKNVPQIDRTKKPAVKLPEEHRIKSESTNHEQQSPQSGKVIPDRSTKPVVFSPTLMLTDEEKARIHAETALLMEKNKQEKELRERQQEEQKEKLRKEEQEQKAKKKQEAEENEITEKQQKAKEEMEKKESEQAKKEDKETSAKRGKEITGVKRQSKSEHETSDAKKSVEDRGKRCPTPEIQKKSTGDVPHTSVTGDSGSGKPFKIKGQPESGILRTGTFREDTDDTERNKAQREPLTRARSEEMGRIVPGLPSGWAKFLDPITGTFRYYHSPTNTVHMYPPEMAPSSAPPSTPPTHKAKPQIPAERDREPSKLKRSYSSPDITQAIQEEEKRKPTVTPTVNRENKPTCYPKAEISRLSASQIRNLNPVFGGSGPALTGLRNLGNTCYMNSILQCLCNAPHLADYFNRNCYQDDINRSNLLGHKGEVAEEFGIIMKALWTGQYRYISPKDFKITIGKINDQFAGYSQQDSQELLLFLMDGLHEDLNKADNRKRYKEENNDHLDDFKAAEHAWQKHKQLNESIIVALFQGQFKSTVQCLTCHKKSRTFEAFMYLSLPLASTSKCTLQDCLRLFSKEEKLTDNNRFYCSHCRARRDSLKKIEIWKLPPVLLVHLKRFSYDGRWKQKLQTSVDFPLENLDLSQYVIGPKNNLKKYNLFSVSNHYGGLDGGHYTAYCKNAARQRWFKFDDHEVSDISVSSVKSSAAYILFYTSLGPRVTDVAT
As to the kind of experiment: Inhibition of human USP8 (734 to 1110 residues) expressed in Escherichia coli BL21 (DE3) using ubiquitin rhodamine 110 as substrate assessed as remaining enzyme activity at 10 to 50 uM by fluorometric assay. As to conditions: dose 10-50 µM.

The subject of another test is MDA-MB-231. As to the kind of experiment: Antiproliferative activity against human MDA-MB-231 cells assessed as reduction in cell viability up to 30 uM incubated for 72 hrs by CellTiter-Glo luminescent assay. The format is functional, cell-based. In general terms: Cellular ATP, detected with luciferase, serves as a proxy for viable cell number.
Test [2] has as its target Ubiquitin carboxyl-terminal hydrolase 9X (Homo sapiens) (UniProt Q93008). As to the kind of experiment: Inhibition of human USP9X using ubiquitin rhodamine 110 as substrate at 10 to 50 uM by fluorometric assay. As to conditions: dose 10-50 µM.

Activity calls are given as the source filed them. No cut-off for these calls is given here.

Ubiquitin carboxyl-terminal hydrolase 9X (Homo sapiens), sequence (Q93008 whole entry): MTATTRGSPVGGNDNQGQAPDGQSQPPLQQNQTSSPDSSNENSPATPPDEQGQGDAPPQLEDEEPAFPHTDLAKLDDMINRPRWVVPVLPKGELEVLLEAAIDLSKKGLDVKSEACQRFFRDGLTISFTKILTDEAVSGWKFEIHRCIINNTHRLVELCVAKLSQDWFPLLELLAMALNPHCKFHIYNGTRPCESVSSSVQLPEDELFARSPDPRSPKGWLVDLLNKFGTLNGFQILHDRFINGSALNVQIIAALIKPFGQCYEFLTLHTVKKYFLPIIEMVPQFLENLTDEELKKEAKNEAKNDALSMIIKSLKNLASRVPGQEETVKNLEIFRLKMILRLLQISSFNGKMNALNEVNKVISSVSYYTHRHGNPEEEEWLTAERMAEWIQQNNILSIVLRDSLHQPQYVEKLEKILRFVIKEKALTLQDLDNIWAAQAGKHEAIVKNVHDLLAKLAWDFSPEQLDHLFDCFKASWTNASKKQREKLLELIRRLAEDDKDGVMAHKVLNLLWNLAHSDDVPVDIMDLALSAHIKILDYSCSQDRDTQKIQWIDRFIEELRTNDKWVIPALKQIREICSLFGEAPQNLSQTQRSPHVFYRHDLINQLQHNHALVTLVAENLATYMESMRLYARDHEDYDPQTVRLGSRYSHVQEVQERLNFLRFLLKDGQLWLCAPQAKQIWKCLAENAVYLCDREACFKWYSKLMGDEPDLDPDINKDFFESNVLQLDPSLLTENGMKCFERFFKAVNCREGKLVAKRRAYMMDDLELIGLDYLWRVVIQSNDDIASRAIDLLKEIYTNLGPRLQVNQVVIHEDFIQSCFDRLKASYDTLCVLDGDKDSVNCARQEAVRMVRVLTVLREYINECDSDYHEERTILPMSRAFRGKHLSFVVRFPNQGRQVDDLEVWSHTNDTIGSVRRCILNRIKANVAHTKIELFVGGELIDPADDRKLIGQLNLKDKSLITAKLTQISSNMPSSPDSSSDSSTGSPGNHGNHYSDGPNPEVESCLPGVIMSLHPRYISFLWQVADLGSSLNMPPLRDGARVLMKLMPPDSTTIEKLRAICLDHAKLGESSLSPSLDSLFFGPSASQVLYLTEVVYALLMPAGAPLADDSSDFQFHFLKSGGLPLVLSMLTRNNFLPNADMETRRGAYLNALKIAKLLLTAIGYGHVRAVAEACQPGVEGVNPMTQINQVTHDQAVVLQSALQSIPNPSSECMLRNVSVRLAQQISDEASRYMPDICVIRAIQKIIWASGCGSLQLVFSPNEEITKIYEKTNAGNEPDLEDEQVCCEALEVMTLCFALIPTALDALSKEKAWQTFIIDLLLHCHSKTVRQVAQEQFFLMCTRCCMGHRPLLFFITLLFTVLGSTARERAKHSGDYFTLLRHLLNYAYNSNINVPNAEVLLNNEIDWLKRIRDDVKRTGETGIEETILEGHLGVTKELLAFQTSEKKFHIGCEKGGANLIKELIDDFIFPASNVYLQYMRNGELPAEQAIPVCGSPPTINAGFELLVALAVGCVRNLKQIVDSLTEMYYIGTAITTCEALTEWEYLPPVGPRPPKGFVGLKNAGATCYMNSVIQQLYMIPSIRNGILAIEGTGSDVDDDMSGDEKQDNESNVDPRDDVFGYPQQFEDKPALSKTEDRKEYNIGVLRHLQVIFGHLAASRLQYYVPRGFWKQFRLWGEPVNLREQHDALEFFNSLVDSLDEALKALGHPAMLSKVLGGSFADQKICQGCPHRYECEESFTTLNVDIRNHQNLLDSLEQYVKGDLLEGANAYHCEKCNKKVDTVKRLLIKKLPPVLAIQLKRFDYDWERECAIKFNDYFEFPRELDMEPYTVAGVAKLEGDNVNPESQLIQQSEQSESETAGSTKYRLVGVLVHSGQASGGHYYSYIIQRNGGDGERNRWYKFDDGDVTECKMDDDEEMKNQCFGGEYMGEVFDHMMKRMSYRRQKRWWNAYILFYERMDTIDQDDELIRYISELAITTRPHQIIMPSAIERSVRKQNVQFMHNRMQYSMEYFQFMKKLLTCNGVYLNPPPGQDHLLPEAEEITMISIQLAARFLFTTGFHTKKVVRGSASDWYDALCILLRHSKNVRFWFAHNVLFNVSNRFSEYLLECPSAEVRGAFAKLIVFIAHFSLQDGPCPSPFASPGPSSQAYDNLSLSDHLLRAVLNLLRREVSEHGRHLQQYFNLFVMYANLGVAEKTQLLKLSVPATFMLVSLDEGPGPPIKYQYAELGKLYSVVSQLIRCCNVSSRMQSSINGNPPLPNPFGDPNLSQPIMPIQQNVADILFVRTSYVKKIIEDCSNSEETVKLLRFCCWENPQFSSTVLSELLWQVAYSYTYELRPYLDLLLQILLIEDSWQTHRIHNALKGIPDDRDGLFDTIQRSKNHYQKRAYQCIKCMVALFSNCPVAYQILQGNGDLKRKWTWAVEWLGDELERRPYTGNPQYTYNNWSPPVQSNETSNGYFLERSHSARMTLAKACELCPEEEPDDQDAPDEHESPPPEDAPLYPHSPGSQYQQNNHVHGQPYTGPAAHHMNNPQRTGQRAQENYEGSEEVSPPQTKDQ

Take `CC(NC(=O)C1CCCC1)C(=O)Nc1nnc(Cc2ccc([N+](=O)[O-])cc2)s1` (racemic): the Activity in test [1] was less than 50%.
For the molecule `CC(C)C[C@H](NC(=O)C1(C(F)(F)F)CCCCC1)C(=O)Nc1nnc(Cc2ccc(C#N)cc2)s1`, the outcome in the test with MDA-MB-231 was inactive. Also, in test [2], the inhibition entry was “inactive”.
